From patent US8846739B2, “TGR5 agonists” (Exelixis Patent Company LLC, priority 2009, dated 2014) come the findings set out here.

Assay [1] has as its target T1, h-TGR5 (Homo sapiens, UniProt Q8TDU6).
T1 sequence (Q8TDU6 1-330): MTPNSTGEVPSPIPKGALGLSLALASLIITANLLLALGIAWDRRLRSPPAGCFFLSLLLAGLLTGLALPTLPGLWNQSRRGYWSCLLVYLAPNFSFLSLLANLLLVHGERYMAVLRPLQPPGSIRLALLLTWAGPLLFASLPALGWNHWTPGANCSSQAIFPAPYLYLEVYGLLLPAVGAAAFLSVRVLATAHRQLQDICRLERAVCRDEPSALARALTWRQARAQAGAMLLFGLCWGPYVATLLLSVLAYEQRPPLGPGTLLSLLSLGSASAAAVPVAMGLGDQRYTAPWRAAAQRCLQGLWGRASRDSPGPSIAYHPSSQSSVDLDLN
Description: TGR5 cAMP Assay using Cisbio cAMP Dynamic 2 htrf assay kit. In kind it is cell-based. The following applies: hTGR5CRE-luc HEK 293 cells.

The target in assay [2] is T2, human TGR5 (h-TGR5) (Homo sapiens, UniProt Q8TDU6).
T2 sequence (Q8TDU6 1-330): T1 sequence (Q8TDU6 1-330)
Briefly: TGR5/CRE-Luciferase Assay. In kind it is cell-based. The following applies: HEK 293 hTGR5/CRE-Luc cells, 6 hours incubation, read-out: CRE-Luc Agonist (EC50). Summed up: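 HEK 293 CRE-Luciferase cells stably expressing the receptor, plated in DMEM 18-20 h before assay, then exposed to serially diluted compounds (DMEM with 5% DMSO) for 6 h. Luciferase read-out after lysis; EC50 from dose-response.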

Counter-ions that a name gives are not always drawn. A value given as a limit tells only on which side of the number the result lay.

Turning to `COc1cc(C(C)(C)c2cnc(SCc3c(F)cc(CCCC[N+](C)(C)C)cc3F)n2-c2ccc(F)cc2)ccc1Cl` [Compound 19e, 4-(4-((5-(2-(4-chloro-3-methoxyphenyl)propan-2-yl)-1-(4-fluorophenyl)-1H-imidazol-2-ylthio)methyl)-3,5-difluorophenyl)-N,N,N-trimethylbutan-1-aminium 2,2,2-trifluoroacetate], the EC50 in assay [1] and in assay [2] was less than 100 nM throughout.

Regarding `COc1cc(-n2c(C(C)(C)c3ccc(S(N)(=O)=O)c(Cl)c3)cnc2SCc2c(F)cc(CCC[N+](C)(C)C)cc2F)ccc1F` [Compound 19f, 3-(4-((5-(2-(3-chloro-4-sulfamoylphenyl)propan-2-yl)-1-(4-fluoro-3-methoxyphenyl)-1H-imidazol-2-ylthio)methyl)-3,5-difluorophenyl)-N,N,N-trimethylpropan-1-aminium 2,2,2-trifluoroacetate], the EC50 in assay [1] and in assay [2] was less than 100 nM in each case.

Regarding `COc1cc(C(C)(C)c2cnc(SCc3c(F)cc(OCC[N+](C)(C)C)cc3F)n2-c2ccc(F)cc2)ccc1Cl` [Compound 20, 2-(4-((5-(2-(4-Chloro-3-methoxyphenyl)propan-2-yl)-1-(4-fluorophenyl)-1H-imidazol-2-ylthio)methyl)-3,5-difluorophenoxy)-N,N,N-trimethylethanaminium 2,2,2-trifluoroacetate], the EC50 in assay [1] and in assay [2] was less than 100 nM in each case.

Consider `CC[N+](CC)(CC)CCOc1cc(F)c(CSc2ncc(C(C)(C)c3ccc(Cl)c(OC)c3)n2-c2ccc(F)cc2)c(F)c1` [Compound 20a, 2-(4-((5(2-(4-chloro-3-methoxyphenyl)propan-2-yl)-(4-fluorophenyl)-1H-imidazol-2-ylthio)methyl)-3,5-difluorophenoxy)-N,N,N-triethylethanaminium chloride], for which the EC50 in assay [1] and in assay [2] was less than 100 nM in each case.

As for `COc1cc(C(C)(C)c2cnc(SCc3c(F)cc(S(=O)(=O)N(CCC[N+]45CCN(CC4)CC5)[C@H](C)C(=O)O)cc3F)n2-c2ccc(F)cc2)ccc1Cl` [Compound 22, (R)-1-(3-(N-(1-carboxyethyl)-4-((5-(2-(4-chloro-3-methoxyphenyl)propan-2-yl)-1-(4-fluorophenyl)-1H-Imidazol-2-ylthio)methyl)-3,5-difluorophenylsulfonamido)propyl)-4-aza-1-azoniabicyclo[2.2.2]octane chloride], the EC50 in assay [1] and in assay [2] was less than 100 nM each time.

Turning to `COc1cc(C(C)(C)c2cnc(SCc3c(F)cc(S(=O)(=O)N(CCCC[N+]45CCN(CC4)CC5)[C@H](C)C(=O)O)cc3F)n2-c2ccc(F)cc2)ccc1Cl` [Compound 22a, N-[4-(4-aza-1-azoniabicyclo[2.2.2]oct-1-yl)butyl]-N-{[4-({[5-{1-[4-chloro-3-(methyloxy)phenyl]-1-methylethyl}-1-(4-fluorophenyl)-1H-imidazol-2-yl]thio}methyl)-3,5-difluorophenyl]sulfonyl}-D-alanine], the EC50 in assay [1] and in assay [2] was less than 100 nM throughout.

Regarding `COc1cc(C(C)(C)c2cnc(SCc3c(F)cc(C(=O)NCC[N+](C)(C)C)cc3Cl)n2-c2ccc(F)cc2)ccc1Cl` [Example 1, 2-(3-chloro-4-((S-(2-(4-chloro-3-methoxyphenyl)propan-2-yl)-1-(4-fluorophenyl)-1H-imidazol-2-ylthio)methyl)-S-fluorobenzamido)-N,N,N-trimethylethanaminium chloride], the EC50 in assay [1] and in assay [2] was less than 100 nM in each case.

As for `COc1cc(-n2c(C(C)(C)c3ccc(S(N)(=O)=O)c(Cl)c3)cnc2SCc2c(F)cc(C(=O)NCC[N+](C)(C)C)cc2Cl)ccc1F` [Example 1a, 2-{[(4-{[(5-{1-[4-(aminosulfonyl)-3-chlorophenyl]-1-methylethyl}-1-[4-fluoro-3-(methyloxy)phenyl]-1H-imidazol-2-yl)thio]methyl}-3-chloro-5-fluorophenyl)carbonyl]amino}-N,N,N-trimethylethanaminium], the EC50 in assay [1] and in assay [2] was less than 100 nM each time.

For the compound `COc1cc(-n2c(C(C)(C)c3ccc4onc(N)c4c3)cnc2SCc2c(F)cc(C(=O)NCC[N+](C)(C)C)cc2Cl)ccc1F` [Example 1b, 2-[({4-[({5-[1-(3-amino-1,2-benzisoxazol-5-yl)-1-methylethyl]-1-[4-fluoro-3-(methyloxy)phenyl]-1H-imidazol-2-yl}thio)methyl]-3-chloro-5-fluorophenyl}carbonyl)amino]-N,N,N-trimethylethanaminium], the EC50 in assay [1] and in assay [2] was less than 100 nM in each case.

As for `CC(C)(c1ccc2onc(N)c2c1)c1cnc(SCc2c(F)cc(C(=O)NCC[N+](C)(C)C)cc2Cl)n1-c1ccc(F)cc1` [Example 1c, 2-[({4-[({5-[1-(3-amino-1,2-benzisoxazol-5-yl)-1-methylethyl]-1-(4-fluorophenyl)-1H-imidazol-2-yl}thio)methyl]-3-chloro-5-fluorophenyl}carbonyl)amino]-N,N,N-trimethylethanaminium], the EC50 in assay [1] and in assay [2] was less than 100 nM throughout.

With `COc1cc(C(C)(C)c2cnc(COc3c(F)cc(C(=O)NCC[N+](C)(C)C)cc3Cl)n2-c2ccc(F)cc2)ccc1Cl` [Example 1e, 2-({[3-chloro-4-({[5-{1-[4-chloro-3-(methyloxy)phenyl]-1-methylethyl}-1-(4-fluorophenyl)-1H-imidazol-2-yl]methyl}oxy)-5-fluorophenyl]carbonyl}amino)-N,N,N-trimethylethanaminium], the EC50 in assay [1] and in assay [2] was less than 100 nM in each case.

For `COc1cc(C(C)(C)c2cnc(CCc3c(F)cc(C(=O)NCC[N+](C)(C)C)cc3Cl)n2-c2ccc(F)cc2)ccc1Cl` [Example 1f, 2-{[(3-chloro-4-{2-[5-{1-[4-chloro-3-(methyloxy)phenyl]-1-methylethyl}-1-(4-fluorophenyl)-1H-imidazol-2-yl]ethyl}-5-fluorophenyl)carbonyl]amino}-N,N,N-trimethylethanaminium], the EC50 in assay [1] and in assay [2] was less than 100 nM each time.

On to `COc1cc(C(C)(C)c2cnc(SCc3c(F)cc(C(=O)NCC[N+]45CCN(CC4)CC5)cc3Cl)n2-c2ccc(F)cc2)ccc1Cl` [Example 2, 1-(2-(3-chloro-4-((5-(2-(4-chloro-3-methoxyphenyl)propan-2-yl)-1-(4-fluorophenyl)-1H-imidazol-2-ylthio)methyl)-5-fluorobenzamido)ethyl)-4-aza-1-azoniabicyclo-[2.2.2]octane chloride hydrochloride], for which the EC50 in assay [1] and in assay [2] was less than 100 nM throughout.

As to `COc1cc(C(C)(C)c2cnc(SCc3c(F)cc(C(=O)NCC[N+]45CCN(CC4)CC5)cc3Cl)n2-c2ccc(F)cc2)ccc1F` [Example 2a, 1-[2-({[3-chloro-5-fluoro-4-({[5-{1-[4-fluoro-3-(methyloxy)phenyl]-1-methylethyl}-1-(4-fluorophenyl)-1H-imidazol-2-yl]thio}methyl)phenyl]carbonyl}amino)ethyl]-4-aza-1-azoniabicyclo[2.2.2]octane], the EC50 in assay [1] and in assay [2] was less than 100 nM each time.

Turning to `COc1cc(-n2c(C(C)(C)c3ccc(Cl)c(Cl)c3)cnc2SCc2c(F)cc(C(=O)NCC[N+]34CCN(CC3)CC4)cc2Cl)ccc1F` [Example 2b, 1-{2-[({3-chloro-4-[({5-[1-(3,4-dichlorophenyl)-1-methylethyl]-1-[4-fluoro-3-(methyloxy)phenyl]-1H-imidazol-2-yl}thio)methyl]-5-fluorophenyl}carbonyl)amino]ethyl}-4-aza-1-azoniabicyclo[2.2.2]octane], the EC50 in assay [1] and in assay [2] was less than 100 nM throughout.

On to `COc1cc(C(C)(C)c2cnc(SCc3c(F)cc(C(=O)NC4CC[N+](C)(C)CC4)cc3Cl)n2-c2ccc(F)cc2)ccc1Cl` [Example 2c, 4-({[3-chloro-4-({[5-{1-[4-chloro-3-(methyloxy)phenyl]-1-methylethyl}-1-(4-fluorophenyl)-1H-imidazol-2-yl]thio}methyl)-5-fluorophenyl]carbonyl}amino)-1,1-dimethylpiperidinium], for which the EC50 in assay [1] and in assay [2] was less than 100 nM throughout.

For `COc1cc(C(C)(C)c2cnc(SCc3c(F)cc(C(=O)N[C@H]4CCC[N+](C)(C)C4)cc3Cl)n2-c2ccc(F)cc2)ccc1Cl` [Example 2d, (3S)-3-({[3-chloro-4-({[5-{1-[4-chloro-3-(methyloxy)phenyl]-1-methylethyl}-1-(4-fluorophenyl)-1H-imidazol-2-yl]thio}methyl)-5-fluorophenyl]carbonyl}amino)-1,1-dimethylpiperidinium], the EC50 in assay [1] and in assay [2] was less than 100 nM each time.

For `COc1cc(C(C)(C)c2cnc(SCc3c(F)cc(C(=O)N[C@H]4CC[N+](C)(Cc5ccc(F)cc5)C4)cc3Cl)n2-c2ccc(F)cc2)ccc1Cl` (stereo partly drawn) [Example 2e, (3S)-3-({[3-chloro-4-({[5-{1-[4-chloro-3-(methyloxy)phenyl]-1-methylethyl}-1-(4-fluorophenyl)-1H-imidazol-2-yl]thio}methyl)-5-fluorophenyl]carbonyl}amino)-1-[(4-fluorophenyl)methyl]-1-methylpyrrolidinium], the EC50 in assay [1] and in assay [2] was less than 100 nM in each case.
